Measurements published in US7557244B2, “Substituted biphenyl carboxylic acids and derivatives thereof” (Ortho-McNeil Pharmaceutical, Inc., priority 2006, dated 2009).

Tested on: γ-secretase
Experiment: Screening for γ-secretase-modulating activity, Aβ 42 in SKNBE2 cells carrying APP 695-wild type
Type: cell-based
Settings: for EC50: read-out: WTAPP SKNBE2 Aβ 42 EC50
Description: Screening of the Compounds of the Invention for γ-Secretase-Modulating Activity
Screening was carried out using SKNBE2 cells carrying the APP 695-wild type, grown in DMEM/NUT-mix F12 (HAM) provided by Gibco (cat no. 31330-38) containing 5% Serum/Fe supplemented with 1% non-essential amino acids.
Cells were grown to near confluency.
The screening was performed using the assay as described in Citron et al (1997) Nature Medicine 3: 67.
IC50-Values of Selected Compounds of the Invention on the γ-Secretase Activity.

SMILES	WTAPP SKNBE2 Aβ 42 % Inhibition at 3 μM	EC50
CC(C)CC(C(=O)O)c1cc(Nc2ccc(Cl)c(C(F)(F)F)c2)cc(-c2ccc(C(F)(F)F)cc2)c1 (stereo not shown) [Compound 12, 2-[5-(4-Chloro-3-trifluoromethyl-phenylamino)-4′-trifluoromethyl-biphenyl-3-yl]-4-methyl-pentanoic acid]	81%	
CC(C)CC(C(=O)O)c1cc(Oc2cc(F)cc(F)c2)cc(-c2ccc(C(F)(F)F)cc2)c1 (stereo not shown) [Compound 27, 2-[5-(3,5-Difluoro-phenoxy)-4′-trifluoromethyl-biphenyl-3-yl]-4-methyl-pentanoicacid]		770 nM
CC(C)CC(C(=O)O)c1cc(Nc2cc(C(F)(F)F)ccc2C(F)(F)F)cc(-c2ccc(C(F)(F)F)cc2)c1 (stereo not shown) [Compound 8, 2-[5-(2,5-Bis-trifluoromethyl-phenylamino)-4′-trifluoromethyl-biphenyl-3-yl]-4-methyl-pentanoic acid]		200 nM
CC(C)CC(C(=O)O)c1cc(Nc2cc(C(F)(F)F)cc(C(F)(F)F)c2)cc(-c2cc(C(F)(F)F)cc(C(F)(F)F)c2)c1 (stereo not shown) [Compound 43, 2-[5-(3,5-Bis-trifluoromethyl-phenylamino)-3′,5′-bis-trifluoromethyl-biphenyl-3-yl]-4-methyl-pentanoic acid]	89%	
CC(C)CC(C(=O)O)c1cc(Nc2ccc(F)cc2C(F)(F)F)cc(-c2ccc(C(F)(F)F)cc2)c1 (stereo not shown) [Compound 9, 2-[5-(4-Fluoro-2-trifluoromethyl-phenylamino)-4′-trifluoromethyl-biphenyl-3-yl]-4-methyl-pentanoic acid]		280 nM
COc1cc(Oc2cc(-c3ccc(C(F)(F)F)cc3)cc(C(CC(C)C)C(=O)O)c2)ccc1F (stereo not shown) [Compound 18, 2-[5-(4-Fluoro-3-methoxy-phenoxy)-4′-trifluoromethyl-biphenyl-3-yl]-4-methyl-pentanoic acid]	19%	
CC(C)CC(C(=O)O)c1cc(Oc2cccc(C(C)C)c2)cc(-c2ccc(C(F)(F)F)cc2)c1 (stereo not shown) [Compound 15, 2-[5-(3-Isopropyl-phenoxy)-4′-trifluoromethyl-biphenyl-3-yl]-4-methyl-pentanoic acid]	65%	
CC(C)CC(C(=O)O)c1cc(Oc2cc(F)cc(C(F)(F)F)c2)cc(-c2cc(C(F)(F)F)cc(C(F)(F)F)c2)c1 (stereo not shown) [Compound 34, 2-[5-(3-Fluoro-5-trifluoromethyl-phenoxy)-3′,5′-bis-trifluoromethyl-biphenyl-3-yl]-4-methyl-pentanoic acid]		260 nM
CC(C)CC(C(=O)O)c1cc(Nc2cc(C(F)(F)F)cc(C(F)(F)F)c2)cc(-c2ccc(C(F)(F)F)cc2)c1 (stereo not shown) [Compound 3, 2-[5-(3,5-Bis-trifluoromethyl-phenylamino)-4′-trifluoromethyl-biphenyl-3-yl]-4-methyl-pentanoic acid]		300 nM
CC(C)CC(C(=O)O)c1cc(Nc2ccc(F)cc2F)cc(-c2ccc(C(F)(F)F)cc2)c1 (stereo not shown) [Compound 2, 2-[5-(2,4-Difluoro-phenylamino)-4′-trifluoromethyl-biphenyl-3-yl]-4-methyl-pentanoic acid]	62%	
CC(C)CC(C(=O)O)c1cc(Nc2ccc(Cl)cc2)cc(-c2ccc(C(F)(F)F)cc2)c1 (stereo not shown) [Compound 5, 2-[5-(4-Chloro-phenylamino)-4′-trifluoromethyl-biphenyl-3-yl]-4-methyl-pentanoic acid]	79%	
CC(C)CC(C(=O)O)c1cc(Nc2cc(F)cc(F)c2)cc(-c2ccc(C(F)(F)F)cc2)c1 (stereo not shown) [Compound 1, 2-[5-(3,5-Difluoro-phenylamino)-4′-trifluoromethyl-biphenyl-3-yl]-4-methyl-pentanoic acid]	73%	
CC(C)CC(C(=O)O)c1cc(Nc2cc(Cl)cc(Cl)c2)cc(-c2ccc(C(F)(F)F)cc2)c1 (stereo not shown) [Compound 7, 2-[5-(3,5-Dichloro-phenylamino)-4′-trifluoromethyl-biphenyl-3-yl]-4-methyl-pentanoic acid]		420 nM
CC(C)CC(C(=O)O)c1cc(Oc2ccc(C(F)(F)F)cc2)cc(-c2ccc(C(F)(F)F)cc2)c1 (stereo not shown) [Compound 16, 4-Methyl-2-[4′-trifluoromethyl-5-(4-trifluoromethyl-phenoxy)-biphenyl-3-yl]-pentanoic acid]		2250 nM
CC(C)CC(C(=O)O)c1cc(Oc2cccc(C(F)(F)F)c2)cc(-c2ccc(C(F)(F)F)cc2)c1 (stereo not shown) [Compound 20, 2 4-Methyl-2-[4′-trifluoromethyl-5-(3-trifluoromethyl-phenoxy)-biphenyl-3-yl]-pentanoic acid]		660 nM
CC(C)CC(C(=O)O)c1cc(Nc2ccc(C(C)C)cc2)cc(-c2ccc(C(F)(F)F)cc2)c1 (stereo not shown) [Compound 4, 2-[5-(4-Isopropyl-phenylamino)-4′-trifluoromethyl-biphenyl-3-yl]-4-methyl-pentanoic acid]		290 nM
COc1ccc(Oc2cc(-c3ccc(C(F)(F)F)cc3)cc(C(CC(C)C)C(=O)O)c2)cc1C(F)(F)F (stereo not shown) [Compound 19, 2-[5-(4-Methoxy-3-trifluoromethyl-phenoxy)-4′-trifluoromethyl-biphenyl-3-yl]-4-methyl-pentanoic acid]	22%	
CC(C)CC(C(=O)O)c1cc(Oc2cccc(C(F)(F)F)c2)cc(-c2cc(F)cc(C(F)(F)F)c2)c1 (stereo not shown) [Compound 31, 2-[3′-Fluoro-5′-trifluoromethyl-5-(3-trifluoromethyl-phenoxy)-biphenyl-3-yl]-4-methyl-pentanoic acid]	84%	
CC(C)CC(C(=O)O)c1cc(Oc2cc(F)c(F)c(F)c2)cc(-c2ccc(C(F)(F)F)cc2)c1 (stereo not shown) [Compound 17, 4-Methyl-2-[4′-trifluoromethyl-5-(3,4,5-trifluoro-phenoxy)-biphenyl-3-yl]-pentanoic acid]		1850 nM
COc1ccc(Oc2cc(-c3ccc(C(F)(F)F)cc3)cc(C(CC(C)C)C(=O)O)c2)cc1 (stereo not shown) [Compound 28, 2-[5-(4-Methoxy-phenoxy)-4′-trifluoromethyl-biphenyl-3-yl]-4-methyl-pentanoic acid]	−3%	
CC(C)CC(C(=O)O)c1cc(Nc2ccc(F)cc2)cc(-c2ccc(C(F)(F)F)cc2)c1 (stereo not shown) [Compound 6, 2-[5-(4-Fluoro-phenylamino)-4′-trifluoromethyl-biphenyl-3-yl]-4-methyl-pentanoic acid]	66%	
CC(C)CC(C(=O)O)c1cc(Nc2cc(C(F)(F)F)ccc2C(F)(F)F)cc(-c2cc(F)cc(C(F)(F)F)c2)c1 (stereo not shown) [Compound 40, 2-[5′-Fluoro-5-(2,5-bis-trifluoromethyl-phenylamino)-3′-trifluoromethyl-biphenyl-3-yl]-4-methyl-pentanoic acid]		330 nM
CC(C)CC(C(=O)O)c1cc(Oc2ccccc2)cc(-c2ccc(C(F)(F)F)cc2)c1 (stereo not shown) [Compound 24, 4-Methyl-2-(5-phenoxy-4′-trifluoromethyl-biphenyl-3-yl)-pentanoic acid]	45%	
CC(C)CC(C(=O)O)c1cc(Nc2cccc(C(F)(F)F)c2)cc(-c2ccc(C(F)(F)F)cc2)c1 (stereo not shown) [Compound 10, 4-Methyl-2-[4′-trifluoromethyl-5-(3-trifluoromethyl-phenylamino)-biphenyl-3-yl]-pentanoic acid]		410 nM
CC(C)CC(C(=O)O)c1cc(Oc2cccc(F)c2)cc(-c2ccc(C(F)(F)F)cc2)c1 (stereo not shown) [Compound 26, 2-[5-(3-Fluoro-phenoxy)-4′-trifluoromethyl-biphenyl-3-yl]-4-methyl-pentanoic acid]	58%	
